Assay results taken from publication PMC10463376, “Design, synthesis, in vitro anticancer, molecular docking and SAR studies of new series of pyrrolo[2,3-d]pyrimidine derivatives” (BMC Chemistry, 2023).
Values after ≈ are worked out from the molar mass of the structure shown. “Also recorded” adds a separate entry of the source.

What was measured:
[1] = test system: PC3 prostate cancer cells; assay: MTT assay, PC3; settings: Homo sapiens, 72 h
Summary of the method: (§1)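 Cells seeded at 10 × 10^4 cells/well, 24 h at 37 ℃/5% CO2, then exposed to compound for 72 h (DMSO <0.2%); MTT ([…]) added for 4 h, formazan dissolved in 10% SDS overnight, absorbance read at 595 nm with 620 nm reference. IC50 as concentration killing 50% of cells; SI = IC50 in BJ1/IC50 in cancer line.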

DR4 = assay: RT-qPCR DR4 mRNA in MCF7; assay type: cell-based, human; settings: MCF7, vs negative control
Protocol: (§2) All of the extractions were conducted on ice with ice-cold reagents. Total RNA from the different cell lines was isolated using Trizol (Invitrogen; Life Technologies, USA) according to the method of Sthoeger et al.. The 260:280 ratios were measured to determine RNA quality after the isolation method was completed according to the manufacturer’s instructions. A high-capacity cDNA reverse transcription kit was used to produce complementary DNA (cDNA) (Applied Biosystems, USA). […] The relative gene expression method (i.e., ΔΔCT) was used to analyze the real-time PCR data, as explained in Applied Biosystem User Bulletin No. 2. Each sample and gene were normalized using the β-actin gene.

A549 lung cancer cells = assay: MTT assay, A549; settings: Homo sapiens, A549, 72 h, read-out: MTT cell proliferation mortality assay (%) A549, at 100 μg/ml, 72 h
Summary of the method: as §1

BAX [2] = assay: RT-qPCR BAX mRNA in MCF7; assay type: cell-based, human; settings: MCF7, vs negative control
Protocol: as §2

MCF7 breast cancer cells = assay: MTT assay, MCF7; settings: Homo sapiens, MCF7, 72 h
Summary of the method: as §1

HePG2 liver cancer cells = assay: MTT assay, HePG2; settings: Homo sapiens, HepG2, 72 h
Summary of the method: as §1

BAX [3] = assay: ELISA BAX in MCF7 cells; assay type: cell-based, human; settings: MCF7 cells treated with IC50; untreated control 4.92
From the text: (§3) Elisa assay was used to determine the concentrations of Human caspases-3, -8, Bax, and Bcl2 in PACA2- and A549-treated cells. Also, the concentrations of caspase-8, Bax, and Bcl2 in MCF7-treated cells were detected. The procedures were followed up according to the instructions described in the following kits; Invitrogen human Caspase-3 Elisa Kit, Catalog KHO1091, DRG® human Caspase-8 ELISA Kit, Catalog (EIA-4863), Human Bax ELISA Kit (ab199080) and Human Bcl-2 ELISA Kit (ab119506) respectively. Shortly, the protocol described in the above kits was as followed; at the beginning, all the reagents, samples and standards were prepared. 100 μl of samples or standard were micro pipetted to each well of micro-well strip and kept at room temperature for 2 h. After washing the micro-well strips three times with washing buffer, the prepared antibody (anti-rabbit-IgG-HRP) at a concentration of 100 μl was added to each well at room temperature for 1 h. Then, the micro-well strips were washed again three times. Afterward, the prepared tetramethyl-benzidine (TMB) solution (100 μl) was added to the micro-well strips and kept for 10 min. At last, about 50 μl of stop solution was pipetted to each well to inactivate the enzyme completely. The absorbance of all samples was measured at a wavelength of 460 nm and compared to that of the standard. Curve fitting software was used to plot a standard curve and the concentrations for the unknown samples were measured from the standard curve.

[4] = test system: PACA2 pancreatic cancer cells; assay: MTT assay, PACA2; settings: Homo sapiens, PaCa-2, 72 h
Summary of the method: as §1

IL-8 = assay: RT-qPCR IL-8 mRNA in MCF7; assay type: cell-based, human; settings: MCF7, vs negative control
Protocol: as §2

[5] = MTT assay, normal cell line BJ1; assay type: cell-based; settings: human, at 100 μg/ml, read-out: MTT cell proliferation mortality assay (%) BJ1
Bcl2 = assay: ELISA Bcl2 in MCF7 cells; assay type: cell-based, human; settings: MCF7 cells treated with IC50; untreated control 14.37
From the text: as §3

caspase 8 = assay: ELISA caspase 8 in MCF7 cells; assay type: cell-based, human; settings: MCF7 cells treated with IC50; untreated control 3.99
From the text: as §3

CDK4 = assay: RT-qPCR CDK4 mRNA in MCF7; assay type: cell-based, human; settings: MCF7, vs negative control
Protocol: as §2

P53 = assay: RT-qPCR P53 mRNA in MCF7; assay type: cell-based, human; settings: MCF7, vs negative control
Protocol: as §2

In the case of `COc1ccc(-c2c(Cl)n(-c3ccc(Cl)cc3Cl)c3ncnc(N4CCOCC4)c23)cc1OC` [Compound 18b, 4-(6-chloro-7-(2,4-dichlorophenyl)-5-(3,4-dimethoxyphenyl)-7H-pyrrolo[2,3-d]pyrimidin-4-yl)morpholine], the IC50 ([1]; read-out: IC50 PC3) is reported as 19.2 ± 0.9 µg/mL (≈ 36.9 µM), the cytotoxicity at 100 µg/mL ([1]; read-out: MTT cell proliferation mortality assay (%) PC3, at 100 μg/ml, 72 h) is reported as 100% and the “DR4 mRNA level” value (DR4) is reported as “increased; also recorded: up-regulated”. For the same compound, the cytotoxicity at 100 µg/mL (A549 lung cancer cells) was 11.2 ± 0.6%, the “BAX mRNA level” value (BAX [2]) was “up-regulated” and the IC50 (MCF7 breast cancer cells; read-out: IC50 MCF7) was 3.4 ± 0.3 µg/mL (≈ 6.54 µM). For the same compound, the cytotoxicity at 100 µg/mL (MCF7 breast cancer cells; read-out: MTT cell proliferation mortality assay (%) MCF7) was 100%, the IC50 (HePG2 liver cancer cells; read-out: IC50 HePG2) was 28.1 ± 0.4 µg/mL (≈ 54.1 µM) and the cytotoxicity at 100 µg/mL (HePG2 liver cancer cells; read-out: MTT cell proliferation mortality assay (%) HePG2) was 100%. For the same compound, the “BAX level (ELISA)” value (BAX [3]) was 7.25 pg/mL, the IC50 ([4]; read-out: IC50 PACA2) was 15 ± 0.9 µg/mL (≈ 28.9 µM) and the cytotoxicity at 100 µg/mL ([4]; read-out: MTT cell proliferation mortality assay (%) PACA2) was 100%. The “IL-8 mRNA level” value (IL-8) was “lowered; also recorded: down-regulated”, the cytotoxicity at 72 h, 100 μg/ml [5] was 20.6 ± 2.1% and the “Bcl2 level (ELISA)” value (Bcl2) was 9.24 pg/mL. For the same compound, the “caspase 8 level (ELISA)” value (caspase 8) was 10.29 pg/mL, the “CDK4 mRNA level” value (CDK4) was “lowered; also recorded: down-regulated” and the “P53 mRNA level” value (P53) was “significantly increased; also recorded: up-regulated”.
